Measurements published in US20240238365A1, “AMYLOID-Beta AGGREGATION INHIBITOR, PHARMACEUTICAL COMPOSITION FOR AMYLOID-Beta AGGREGATION DISEASES, AND USE APPLICATION OF SAME” (O-FORCE CO., LTD., priority 2021, published 2024).
“Also recorded” adds a separate entry of the source. Where no end group is shown, it is not given here.

Experiments:
[1] = target: T1, Aß25-35 (Homo sapiens, UniProt P05067); experiment: Inhibition of Aß25-35 aggregation, thioflavin T (ThT) fluorescence; format: biochemical; settings: 0.1 mM peptide YS, 0.1 mM Aß25-35, 37° C., incubation 4 hours, n=3
Protocol: The peptides YS-11, YS-15, and YS-16 were used as the peptides YS of the examples. Each of the peptides was dissolved in MilliQ water to prepare three types of 1-mg/mL YS solutions.
An Aß-derived fragment peptide was used for aggregation of Aß. Aß25-35, which has high aggregability, was selected as the fragment peptide. The Aß25-35 is a peptide (SEQ ID NO: 7: GSNKGAIIGLM) constituted by 11 amino acid residues consisting of the twenty-fifth to thirty-fifth amino acid residues in the full length sequence of human-derived Aß (SEQ ID NO: 6). The Aß25-35 was dissolved in MilliQ water to prepare a 1-mmol/L Aß25-35 solution.
The fluorescent dye thioflavin T (ThT) binds to aggregates and emits strong fluorescence upon binding, and thus the increase or inhibition of aggregation can be determined by measuring the fluorescence intensity. Thus, the inhibition of aggregation of the Aß25-35 by each peptide YS was checked using ThT.
Specifically, a reaction solution with the following composition was prepared and dispensed into wells such that the amount of the reaction solution per well was 200 μL. After the reaction solution was incubated at 37° C. for a predetermined period of time (0 or 4 hours), 10 μL of 2-mmol/L ThT (reagent name “Thioflavine T”, manufactured by FUJIFILM Wako Pure Chemical Corporation) was added to each well, and the fluorescence intensity was measured using a measurement device (product name “Cytation5”, manufactured by BioTek) (n=3). The measurement wavelengths were set such that the excitation wavelength (ex) was 444 nm and the fluorescence wavelength (em) was 480 nm. As a control, a reaction solution to which water had been added instead of the peptide YS was also measured in the same way.

[2] = target: T1, Aß25-35; experiment: Aggregation inhibition checked by scanning electron microscope; format: biochemical; settings: 0.1 mM peptide, 0.1 mM Aß25-35, 37° C., 4 hours, versus no peptide YS
Protocol: A reaction solution with the following composition was prepared in a 1.5-mL tube (manufactured by Eppendorf). After incubating at 37° C. for 4 hours, the reaction solution was centrifuged (12,000 rpm, 10 minutes), and a precipitate was collected. The collected precipitate was washed as follows: 200 μL of MilliQ water was added to the precipitate and the resultant mixture was centrifuged again (12,000 rpm, 10 minutes). This washing treatment was performed three times. Then, 100 μL of a 1% phosphotungstic acid solution was added to the collected precipitate. After the resultant mixture was left to stand for 5 minutes at room temperature, the precipitate was collected through centrifugation (12,000 rpm, 10 minutes), was washed by adding 200 μL of MilliQ water thereto, and was collected through centrifugation (12,000 rpm, 10 minutes). 100 μL of MilliQ water was added to the precipitate, and a suspension was formed using a Vortex mixer. The suspension was added to a glass slide and dried, followed by observation under a scanning electron microscope. [table]

[3] = test system: ICR mice to which Aß25-35 had been administered; experiment: Y-maze short-term memory test in mice given Aß25-35; format: in vivo
Protocol: The aggregation inhibiting peptide was further administered to mice to which the Aß25-35 had been administered, and then the effects of the aggregation inhibiting peptide was checked.
The Aß25-35 was dissolved in a saline solution to prepare a 3-mmol/L Aß25-35 solution. The Aß25-35 and the YS-11 were dissolved in a saline solution to prepare a mixed solution containing the Aß25-35 at a concentration of 3 mmol/L and the YS-11 at a concentration of 3 mmol/L. The YS-11 was dissolved in a saline solution to prepare a 10-mg/mL YS-11 solution. A saline solution (Saline) was used as a control.
ICR mice (6-week old) were prepared and divided into an Aß25-35 administration group (n=15), a control (Saline) administration group (n=15), a mixed solution administration group (n=6), and a peptide YS administration group (n=7).
The administration schedule was as follows: ventricular administration was performed on Day 1, and nasal administration was performed on Day 14, Day 17, Day 20, and Day 23. A microsyringe was used for the ventricular administration, and a Pipetman was used for the nasal administration. Specifically, the administration was performed on each administration group as follows. […]
Then, on Day 14 and Day 28, the short-term memory was evaluated using a Y-maze. […]

[4] = target: T1, Aß25-35; experiment: IC50 of YS peptide against Aß25-35 aggregation (ThT fluorescence); format: biochemical; settings: 37° C., ThT added 2 hours after start of incubation, blank corrected, n=3
Protocol: Reaction solutions with different compositions, namely those with the following compositions (A, B, C, and D), were prepared and dispensed into wells such that the amount of the reaction solution per well was 200 μL. The concentration (X mmol/L) of the peptide YS (YS-11 or YS-16) in the YS solution to be added to the reaction solutions was set to 0.01, 0.05, 0.1, 0.5, and 1 mmol/L. The reaction solutions were incubated at 37° C., and 10 μL of 2-mmol/L ThT (reagent name “Thioflavine T”, manufactured by FUJIFILM Wako Pure Chemical Corporation) was added to each well 2 hours after the start of the incubation. Then, the fluorescence intensity was measured using the measurement device (n=3). The measurement wavelengths were set such that the excitation wavelength (ex) was 444 nm and the fluorescence wavelength (em) was 480 nm. [table] […] In FIG. 2, the vertical axes indicate the fluorescence intensity (unit: FI), and the horizontal axes indicate the concentration of the peptide YS (unit: μmol/L).

[5] = target: T2, Aß25-35 aggregates (Homo sapiens, UniProt P05067); experiment: Dissociation of Aß25-35 aggregates checked by scanning electron microscope; format: biochemical; settings: pre-formed aggregates; 100 μL of 0.05-mmol/L YS-11 or 1-mmol/L YS-16 solution added, 37° C., 5 days; versus no peptide
Protocol: A reaction solution with the following composition was prepared in a 1.5-mL tube (manufactured by Eppendorf) and incubated at 37° C. for 18 hours to form aggregates of the Aß25-35. Then, 100 μL of a peptide YS solution at a predetermined concentration was added to the reaction solution, and the resultant mixture was further incubated at 37° C. for 5 days. A 0.05-mmol/L YS-11 solution, a 1-mmol/L YS-16 solution, and a 1-mmol/L YS-6 solution were used as the peptide YS solution, and MilliQ water was used instead of the peptide YS solution as a control. After the incubation, centrifugation (12,000 rpm, 10 minutes) was performed to collect a precipitate. The precipitate was treated in the same manner as in Example 1(3) above, and was then observed under a scanning electron microscope. [table]

[6] = target: T2, Aß25-35 aggregates; experiment: Peptide YS concentration versus ability to dissociate Aß25-35 aggregates (ThT fluorescence); format: biochemical; settings: 37° C.; for ability to dissociate Aß25-35 aggregates: 5 days after aggregate formation
Protocol: First, a reaction solution with the following composition was prepared, was dispensed into wells such that the amount of the reaction solution per well was 200 μL, and was incubated at 37° C. for 18 hours to form aggregates of the Aß25-35 in the reaction solution. 100 μL of an X-mmol/L peptide YS solution (YS-11 or YS-16) was further added to the reaction solution, and the resultant mixture was incubated at 37° C. for 5 days. The concentration (X mmol/L) of the peptide YS in the peptide YS solutions was set to […]. After the incubation, 10 μL of 2-mmol/L ThT was added to each well, and the fluorescence intensity was measured using the measurement device (n=3). The measurement wavelengths were set such that the excitation wavelength (ex) was 444 nm and the fluorescence wavelength (em) was 480 nm. As a control, a reaction solution (Aß25-35) to which water had been added instead of the peptide YS was also measured in the same way. [table]

[7] = target: T2, Aß25-35 aggregates; experiment: Ability to dissociate pre-formed Aß25-35 aggregates (ThT fluorescence); format: biochemical; settings: aggregates formed 18 hours at 37° C., then 100 μL of 1-mmol/L peptide added, 5 days
Protocol: First, a reaction solution with the following composition was prepared and incubated at 37° C. for 18 hours to form aggregates of the Aß25-35 in the reaction solution. 100 μL of a 1-mmol/L peptide YS (YS-5 or YS-16) was further added to the reaction solution, and the resultant mixture was incubated at 37° C. for 5 days. After the incubation, the reaction solution was dispensed into wells such that the amount of the reaction solution per well was 200 μL. Furthermore, 10 μL of 2-mmol/L ThT was added to each well, and the fluorescence intensity was measured using the measurement device (n=3). The measurement wavelengths were set such that the excitation wavelength (ex) was 444 nm and the fluorescence wavelength (em) was 480 nm. As a control, a reaction solution to which water had been added instead of the peptide YS was also measured in the same way. [table]

Sequence | fluorescence intensity compared with the control (Aß25-35 without peptide YS) [1] | fibrous material / formation of aggregates under scanning electron microscope [2] | alternation rate in Y-maze ([3]; Day 14, ventricular coadministration on Day 1 of 9 nmol Aß25-35 and 9 nmol YS-11 (mixed solution), n=6) | alternation rate in Y-maze ([3]; Day 28, Aß25-35 ventricular on Day 1, then YS-11 nasal 74 nmol on Day 14, 17, 20, 23, n=7) | IC50 [4] | amount of fibrous aggregates under scanning electron microscope [5] | ability to dissociate Aß25-35 aggregates ([6]; final concentration range of 0.005 to 0.1 mmol/L) | control aggregates dissociated [7] | fluorescence intensity relative to the control (Aß25-35) [7] | aggregates dissociated (control Aß25-35 aggregates taken as 100%) ([6]; final concentration of 0.1 mmol/L, 5 days) | ability to dissociate Aß25-35 aggregates ([6]; final concentration range of 0.01 to 0.1 mmol/L)
RETLVYLTHLD [YS-11, RETLVYLTHLD] | significantly lower; also recorded: considerably lower | decreased very significantly | as high as that of the control group | as high as that of the control group | 3600 nM | a further decrease in the amount of fibrous aggregates | excellent dissociating ability |  |  |  | 
RETLVYLTHLDYDDTE [YS-16, RETLVYLTHLDYDDTE] | significantly lower; also recorded: considerably lower | substantially no fibrous material was observed |  |  | 600 nM | a decrease in the amount of fibrous aggregates |  | 50% | 50% | 48% | excellent dissociating ability in a concentration-dependent manner
YKNMRETLVYLTHLD (aggregation inhibitor peptide) [YS-15] | significantly lower |  |  |  |  |  |  |  |  |  | 
